The values below come from publication PMC7948978, “MpeV is a lyase isomerase that ligates a doubly linked phycourobilin on the β-subunit of phycoerythrin I and II in marine Synechococcus” (The Journal of Biological Chemistry, 2020).

The target in test [1] is T1, CpeB (beta-subunit of phycoerythrin I) (Synechococcus sp. RS9916, UniProt Q05Q60).
T1 construct: with C-phycoerythrin class I alpha chain (phycoerythrin I alpha subunit)
Nature of the test: LC-MS-MS of trypsin-digested purified protein after co-expression with lyases in E. coli. The format is binding. The note with it: covalent. From the text: (§1) LC-MS-MS of trypsin-digested purified protein after co-expression with lyases in E. coli on CpeB (beta-subunit of phycoerythrin I)

Test [2] concerns the target T2, CpeB (beta-subunit of phycoerythrin I) (Synechococcus sp. RS9916, UniProt Q05Q60, C61A).
T2 construct: with C-phycoerythrin class I alpha chain (phycoerythrin I alpha subunit)
The test is described as above. The test is classed as binding. As to conditions: covalent, same co-expression.
Description: as §1

Test [3] has as its target T3, MpeB (beta-subunit of phycoerythrin II) (Synechococcus sp. RS9916, UniProt Q05Q49).
T3 construct: with C-phycoerythrin class II alpha chain (phycoerythrin II alpha subunit)
The test is described as above. The format is binding. The note with it: covalent. From the text:
LC-MS-MS of trypsin-digested purified protein after co-expression with lyases in E. coli on MpeB (beta-subunit of phycoerythrin II)

The target in the next test is T4, CpeS (Synechococcus sp. RS9916, UniProt Q05Q42).
T4 construct: recombinant, pCpeS plasmid; co-expressed in E. coli with bilin synthesis genes and phycoerythrin subunits; CpeS itself not assayed purified
T4 sequence (Q05Q42 1-178): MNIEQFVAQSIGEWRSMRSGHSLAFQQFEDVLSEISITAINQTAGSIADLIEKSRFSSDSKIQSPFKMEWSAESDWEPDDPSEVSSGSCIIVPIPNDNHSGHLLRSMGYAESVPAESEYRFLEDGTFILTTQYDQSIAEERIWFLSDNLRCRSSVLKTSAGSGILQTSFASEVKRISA
Nature of the test: co-expression in E. coli; absorbance, zinc-enhanced fluorescence and LC-MS-MS of purified CpeB. The format is cell-based. As to conditions: protein co-substrate CpeB or MpeB, site C82; CpeZ enhances.

In test [4] the target is T5, CpeB (beta-subunit of phycoerythrin I) (Synechococcus sp. RS9916, UniProt Q05Q60, C50A).
T5 construct: with C-phycoerythrin class I alpha chain (phycoerythrin I alpha subunit)
Nature of the test: LC-MS-MS of trypsin-digested purified protein after co-expression with lyases in E. coli. The format is binding. From the text: LC-MS-MS of trypsin-digested purified protein after co-expression with lyases in E. coli on CpeB (beta-subunit of phycoerythrin I) | no peptide ions from the C50A mutant coexpressions modified with PUB at the C61 position

For test [5], the target named is T6, CpeB (beta-subunit of phycoerythrin I) (Synechococcus sp. RS9916, UniProt Q05Q60, C50A/C61A).
T6 construct: with C-phycoerythrin class I alpha chain (phycoerythrin I alpha subunit)
Nature of the test: zinc-enhanced bilin fluorescence of gel bands over anti-CpeB western blot. The test is classed as binding. As to conditions: covalent, site C82, attached by CpeS, co-expressed with CpeA, MpeV, CpeZ and bilin synthesis genes. From the text: zinc-enhanced bilin fluorescence of gel bands over anti-CpeB western blot on CpeB (beta-subunit of phycoerythrin I)

The mark [6] stands for this setting: doubly linked at C50 and C61, attached by MpeV, same co-expression.

As to `C=CC1=C(C)C(CC2=NC(=Cc3[nH]c(C=C4NC(=O)C(C)C4=CC)c(C)c3CCC(=O)O)C(CCC(=O)O)=C2C)NC1=O` (stereo not shown) [PEB, phycoerythrobilin], the “β-82 ^b / α-140” value in test [1] (site C82, attached by CpeS, co-expressed with CpeA, MpeV, CpeZ and bilin synthesis genes) is listed as 98.2%. Besides, the “Bilin added ^a” value in test [2] (site C82, attached by CpeS) is reported as 100%; in test [4] (covalent, site C82, attached by CpeS, co-expressed with CpeA, CpeS, MpeV, CpeZ and bilin synthesis genes), 76.3%. The “β-165 / β-82” value in test [3] (site C82, attached by CpeS, co-expressed with MpeA, MpeV, CpeZ and bilin synthesis genes) is listed as 99.7%. The “co-expression in E. coli; absorbance, zinc-enhanced fluorescence and LC-MS-MS of” value on CpeS is reported as “The lyase CpeS is able to attach PEB to CpeB”. Besides, the “Percentage chromophorylation (% ± SD) ^b” value in test [5] is on record as 89.0 ± 12.3 % of WT.
Regarding `C=CC1=C(C)[C@@H](CC2=N/C(=C\c3[nH]c(C[C@H]4NC(=O)C(C)=C4C=C)c(C)c3CCC(=O)O)C(CCC(=O)O)=C2C)NC1=O` [PUB, phycourobilin], the “β-50, 61 ^b / β-159” value in test [1] (setting [6]) amounted to 29.4%. For the same compound, the “Bilin added ^a” value in test [2] (single linkage by A ring at C50, attached by MpeV) is listed as 7.6%; in test [4] (covalent attachment at C61 tested, not detected, same co-expression) it was 0%. In test [3] (setting [6]), the “β-50, 61” value worked out at 84.7%.
